Data taken from patent US10525056B2, “Procaspase-activating compounds and methods” (The Board of Trustees of the University of Illinois, priority 2011, dated 2020).
Where two headings read alike, the source gives them in different places.

Legend:
[1] = tested on: U-937 human lymphoma cells; test: 72 Hour IC50 Cell Death Assay (sulforhodamine B); format: cell-based; conditions: read-out: 72-hour IC50 (μM), U-937 cells, 72 h treatment, average ± SEM of three experiments
Method: U-937 human lymphoma cells were plated into the wells of 96 well plate at a density of 15,000 cells per well in 99 μL of RPMI 1640 growth media with 10% FBS and 1% pen-strep. To each well was added 1 μL of compound stock solutions in DMSO at varying concentrations such that the cells were treated with concentrations between 0 μM and 100 μM compound. Each concentration was tested in quintuplicate per plate. In each plate 5 wells received 20 μM doxorubicin as a positive death control and 5 wells received […] as a negative control.
After the 72 hour incubation period, the plates were analyzed using a Sulforhodamine B assay (Vichai and Kirtikara, Nat Protoc 2006, 1, 1112-1116). Specifically, to each well of the plate 25 μL of a 50% (w/v) solution of trichloroacetic acid in H2O was added and the plates were incubated for 4 hours at 4° C. The plates were then washed gently with water five times. The plates were allowed to air dry after which 100 μL of a 0.057% (w/v) Sulforhodamine B in a 1% (v/v) acetic acid solution was added to each well for 30 minutes at room temperature. The plates were gently washed 5 times with 1% (v/v) acetic acid and air dried. 200 μL of 10 mM Tris base (pH 10.4) was added to each well and the plates were placed on an orbital shaker for thirty minutes. The level of SRB was quantified fluorometrically at excitation and emission wavelengths 488 and 585 nm, respectively, on a Molecular Devices plate reader and the percent cell death calculated and normalized to the positive control (100% cell death) and the negative control (0% cell death). The percent cell death was averaged for each compound concentration and plotted as a function of compound concentration. The data were fit to a logistical dose response curve using Table curve 2D and the IC50 value was calculated. The experiment was repeated three times and the average of the calculated IC50 values was reported. The standard error of the mean (SEM) was determined and reported for the triplicate experiments.

[2] = tested on: U-937 cells; test: Induction of apoptosis by hit compounds (Annexin V-FITC/propidium iodide flow cytometry); format: cell-based; conditions: Homo sapiens, 7.5 μM compound, 24 hours
Method: U-937 Cells (1 mL of 6×10^5 cells/mL) were treated with 10 μL of 750 μM DMSO solutions of the compounds to achieve a final concentration of 7.5 μM. […] The cells were harvested via centrifugation (200 g for 5 minutes), washed with PBS (2 mL), and resuspended in 450 μL Annexin V Binding Buffer. To each sample was added 3.5 μL of FITC conjugated Annexin V stain (Southern Biotech) and 3.5 μL of propidium iodide (Sigma) to a final concentration of 50 μg/mL. Cell populations were analyzed on a Benton Dickinson LSR II cell flow cytometer.

[3] = research dogs, for 48 hours; cited from earlier work
[4] = mice, for 48 hours; cited from earlier work
[5] = tested on: U-937 human lymphoma cells; test: Cell death assay for initial screen (Annexin V-FITC/propidium iodide flow cytometry); format: cell-based; conditions: U-937 cells, 20 μM compound, 24 hours
Method: Apoptotic cell death was assessed by flow cytometry, using Annexin V-FITC/propidium iodide staining.
Compound (2 μL of a 10 mM DMSO solution) was added in singlet by direct addition to a well containing 998 μL U-937 cells (1×10^6) in RPMI 1640 media (10% FBS) at a final compound concentration of 20 μM. […] The cells were double stained with FITC-Annexin V and propidium iodide and a cell population of at least 10,000 events was collected by the LSR II flow cytometer. Percent viable cells (Annexin V—negative, propidium iodide—negative) were determined using FCS Express software.

| SMILES | IC50 [1] [µM] | cytotoxicity at 7.5 µM [2] [%] | serum concentration at doses that can be safely administered [3] [µM] | serum concentration at doses that can be safely administered [4] [µM] | % cell death [5] [%] |
| --- | --- | --- | --- | --- | --- |
| COc1ccc(CN2CCN(CC(=O)N/N=C/c3cc(C(C)(C)C)cc(C(C)(C)C)c3O)CC2)cc1 [3{2,7}, N′-(3,5-di-tert-butyl-2-hydroxybenzylidene)-2-(4-(4-methoxybenzyl)piperazin-1-yl)acetohydrazide] | 1.8 ± 0.2 | 90 |  |  |  |
| COc1ccc(OC)c(CN2CCN(CC(=O)N/N=C/c3cc(C(C)(C)C)cc(C(C)(C)C)c3O)CC2)c1 [3{4,7}, N′-(3,5-di-tert-butyl-2-hydroxybenzylidene)-2-(4-(2,5-dimethoxybenzyl)piperazin-1-yl)acetohydrazide] | 1.6 ± 0.2 | 53 |  |  |  |
| CC(C)(C)c1cc(/C=N/NC(=O)CN2CCN(Cc3ccc(OCc4ccccc4)cc3)CC2)c(O)c(C(C)(C)C)c1 [3{18,7}, 2-(4-(4-(benzyloxy)benzyl)piperazin-1-yl)-N′-(3,5-di-tert-butyl-2-hydroxybenzylidene)acetohydrazide] | 1.4 ± 0.2 | 97 |  |  |  |
| C=CCc1cccc(/C=N/NC(=O)CN2CCN(Cc3ccc(C(C)(C)C)cc3)CC2)c1O [3{20,24}, N′-(3-allyl-2-hydroxybenzylidene)-2-(4-(4-(tert-butyl)benzyl)piperazin-1-yl)acetohydrazide] | 0.9 ± 0.03 | 83 |  |  |  |
| CC(C)(C)c1cc(/C=N/NC(=O)CN2CCN(Cc3ccc4ccccc4c3)CC2)c(O)c(C(C)(C)C)c1 [3{25,7}, N′-(3,5-di-tert-butyl-2-hydroxybenzylidene)-2-(4-(naphthalen-2-ylmethyl)piperazin-1-yl)acetohydrazide] | 1 ± 0.04 | 50 |  |  |  |
| CCc1ccc(CN2CCN(CC(=O)N/N=C/c3cc(C(C)(C)C)cc(C(C)(C)C)c3O)CC2)cc1 [3{28,7}, N′-(3,5-di-tert-butyl-2-hydroxybenzylidene)-2-(4-(4-ethylbenzyl)piperazin-1-yl)acetohydrazide] | 2 ± 0.2 | 70 |  |  |  |
| C=CCc1cccc(/C=N/NC(=O)CN2CCN(Cc3ccccc3)CC2)c1O [PAC-1] | 3.8 ± 0.4 | 21 | ~10 | ~10 | ~50 |
